Test results taken from patent US20050032873A1, “3-Amino chroman and 2-amino tetralin derivatives” (Wyeth, priority 2003, published 2005).
Like-named read-outs stand apart in the source and are kept apart here.

Legend:
5-HT1A receptor [1] = biological target: T1, 5-HT1A receptor (Homo sapiens, UniProt P08908); test: 5-HT1A receptor affinity: displacement of [3H] 8-OH-DPAT; type: binding; design: expressed in transfected cells; conditions: displacement of [3H] 8-OH-DPAT, CHO cells stably transfected with human 5-HT1A receptors
T1 sequence (P08908 1-422): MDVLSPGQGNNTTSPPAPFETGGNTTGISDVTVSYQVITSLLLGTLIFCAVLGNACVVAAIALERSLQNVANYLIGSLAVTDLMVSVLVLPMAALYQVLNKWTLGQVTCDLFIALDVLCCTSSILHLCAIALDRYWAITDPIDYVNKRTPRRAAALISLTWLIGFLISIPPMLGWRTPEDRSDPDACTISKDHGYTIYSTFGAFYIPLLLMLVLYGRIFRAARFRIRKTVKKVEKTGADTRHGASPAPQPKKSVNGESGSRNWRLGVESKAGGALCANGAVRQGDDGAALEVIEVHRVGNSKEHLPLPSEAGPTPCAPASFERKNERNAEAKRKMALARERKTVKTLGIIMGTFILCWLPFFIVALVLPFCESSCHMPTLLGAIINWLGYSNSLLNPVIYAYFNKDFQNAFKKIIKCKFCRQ

serotonin transporter = biological target: T2, serotonin transporter (Rattus norvegicus, UniProt P31652); test: 5-HT transporter affinity: displacement of 3H-paroxetine from male rat cortical membranes; type: binding; conditions: displacement of 3H-paroxetine, male rat cortical membranes
T2 construct: displace ^3H-paroxetine from male rat cortical membranes; from tissue; host or cells: male rat cortical membranes
T2 sequence (P31652 whole entry): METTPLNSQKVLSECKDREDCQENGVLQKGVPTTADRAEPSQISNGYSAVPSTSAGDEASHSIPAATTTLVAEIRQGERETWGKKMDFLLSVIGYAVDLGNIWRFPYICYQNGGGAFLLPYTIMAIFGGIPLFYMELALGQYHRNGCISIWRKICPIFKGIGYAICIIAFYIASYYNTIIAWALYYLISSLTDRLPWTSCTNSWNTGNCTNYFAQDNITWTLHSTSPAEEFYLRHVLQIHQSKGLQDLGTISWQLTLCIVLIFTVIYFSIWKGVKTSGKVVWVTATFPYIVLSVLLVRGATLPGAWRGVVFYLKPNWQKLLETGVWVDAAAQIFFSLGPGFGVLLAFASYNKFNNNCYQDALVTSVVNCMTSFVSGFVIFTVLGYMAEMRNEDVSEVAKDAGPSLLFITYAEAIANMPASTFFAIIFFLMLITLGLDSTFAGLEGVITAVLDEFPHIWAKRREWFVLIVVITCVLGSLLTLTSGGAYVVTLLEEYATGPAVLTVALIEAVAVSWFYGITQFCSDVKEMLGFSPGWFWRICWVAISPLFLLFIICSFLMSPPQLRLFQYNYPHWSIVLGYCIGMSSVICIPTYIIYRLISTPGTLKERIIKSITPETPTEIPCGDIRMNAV

[2] = biological target: T3, cloned human 5-HT1A receptors (Homo sapiens, UniProt P08908); test: 35S-GTPγS binding assay, 5-HT1A function; type: biochemical; conditions: for IC50: antagonist potency, reversal of 8-OH-DPAT, read-out: 5-HT1A Function GTPγS IC50; for EC50: agonist potency
T3 construct: expressed in transfected cells
T3 sequence (P08908 1-422): T1 sequence (P08908 1-422)

5-HT1A receptor [3] = biological target: T1, 5-HT1A receptor; test: cAMP accumulation assay, 5-HT1A function; type: cell-based; conditions: for IC50: cells marked IC50 (antagonist), read-out: 5-HT1A Function cAMP IC50; for Emax: read-out: 5-HT1A Function cAMP (Emax); for EC50: cells marked EC50 (agonist)
[4] = read-out: 5-HT1A Receptor Affinity Ki
[5] = read-out: 5-HT Transporter Affinity Ki
[6] = maximum inhibitory effect, in brackets after IC50, read-out: 5-HT1A Function GTPγS (Imax)
[7] = maximum stimulatory effect, in brackets after EC50, read-out: 5-HT1A Function GTPγS (Emax)

Ki (5-HT1A receptor [1]; [4])	Ki (serotonin transporter; [5])	IC50 [2]	Emax [2, 6]	Emax (5-HT1A receptor [3]; in brackets after EC50 or IC50)	EC50 [2]	Emax [2, 7]	EC50 (5-HT1A receptor [3])	SMILES	IC50 (5-HT1A receptor [3])	Ki (5-HT1A receptor [1]; 5-HT1A Receptor Affinity Ki (nM))	Ki (serotonin transporter; 5-HT Transporter Affinity Ki (nM))	5-HT1A Function GTPγS (Imax) ([2]; maximum inhibitory effect, in brackets after IC50)	5-HT1A Function cAMP (Emax) (5-HT1A receptor [3]; in brackets after EC50 or IC50)
0.15 nM	29 nM	–	–	97.5%	25.8 nM	90%	8.84 nM	COc1cccc2c1CC(N(CCCc1cn(C)c3ccc(F)cc13)CC1CC1)CO2 (centres unmarked) [Compound 38, N-(cyclopropylmethyl)-N-[3-(5-fluoro-1-methyl-1H-indol-3-yl)propyl]-N-(5-methoxy-3,4-dihydro-2H-chromen-3-yl)amine]	–	–	–	–	–
36.2 nM	69 nM	–	–	70.5%	5840 nM	100%	108 nM	COc1cccc2c1CC(N(CCCc1c[nH]c3ccc(F)cc13)C1CCCC1)CO2 (centres unmarked) [Compound 39, N-cyclopentyl-N-[3-(5-fluoro-1H-indol-3-yl)propyl]-N-(5-methoxy-3,4-dihydro-2H-chromen-3-yl)amine]	–	–	–	–	–
80.8 nM	3.8 nM	3770 nM	46%	0%	–	–	–	COc1cccc2c1CC(N(CCCc1c[nH]c3ccc(F)cc13)C(C)C)CO2 (centres unmarked) [Compound 40, N-[3-(5-fluoro-1H-indol-3-yl)propyl]-N-isopropyl-N-(5-methoxy-3,4-dihydro-2H-chromen-3-yl)amine]	–	–	–	–	–
57.3 nM	148 nM	–	–	78.5%	3460 nM	84%	162 nM	COc1cccc2c1CC(N(CCCc1c[nH]c3ccc(F)cc13)C1CC1)CO2 (centres unmarked) [Compound 41, N-cyclopropyl-N-[3-(5-fluoro-1H-indol-3-yl)propyl]-N-(5-methoxy-3,4-dihydro-2H-chromen-3-yl)amine]	–	–	–	–	–
50.4 nM	54 nM	–	–	72.5%	763 nM	84%	154 nM	COc1cccc2c1CC(N(CCCc1c[nH]c3ccc(F)cc13)CC1CCC1)CO2 (centres unmarked) [Compound 42, N-(cyclobutylmethyl)-N-[3-(5-fluoro-1H-indol-3-yl)propyl]-N-(5-methoxy-3,4-dihydro-2H-chromen-3-yl)amine]	–	–	–	–	–
1.02 nM	40.9 nM	–	–	91.5%	51.3 nM	100%	10.8 nM	COc1cccc2c1CC(N(CCCc1c[nH]c3ccccc13)CC1CC1)CO2 (centres unmarked) [Compound 43, N-(cyclopropylmethyl)-N-[3-(1H-indol-3-yl)propyl]-N-(5-methoxy-3,4-dihydro-2H-chromen-3-yl)amine]	–	–	–	–	–
21.4 nM	47.2 nM	242 nM	59%	80.5%	–	–	70 nM	COc1cccc2c1CC(N(CCCc1c[nH]c3ccccc13)C1CCC1)CO2 (centres unmarked) [Compound 44, N-cyclobutyl-N-[3-(1H-indol-3-yl)propyl]-N-(5-methoxy-3,4-dihydro-2H-chromen-3-yl)amine]	–	–	–	–	–
2.16 nM	5.25 nM	–	–	89.5%	56 nM	72%	77.3 nM	COc1cccc2c1CC(N(CCCc1c[nH]c3ccc(C#N)cc13)CC1CC1)CO2 (centres unmarked) [Compound 45, 3-{3-[(cyclopropylmethyl)(5-methoxy-3,4-dihydro-2H-chromen-3-yl)amino]propyl}-1H-indole-5-carbonitrile]	–	–	–	–	–
14.6 nM	7.6 nM	218 nM	81%	0%	107 nM	36%	–	COc1cccc2c1CC(N(CCCc1c[nH]c3ccc(C#N)cc13)C1CCC1)CO2 (centres unmarked) [Compound 46, 3-{3-[cyclobutyl(5-methoxy-3,4-dihydro-2H-chromen-3-yl)amino]propyl}-1H-indole-5-carbonitrile]	899 nM	–	–	–	–
4.12 nM	2.16 nM	–	–	91.5%	10.4 nM	100%	3.5 nM	CCCN(CCCc1c[nH]c2ccc(F)cc12)C1CCc2cccc(OC)c2C1 (centres unmarked) [Compound 47, N-[3-(5-fluoro-1H-indol-3-yl)propyl]-N-(8-methoxy-1,2,3,4-tetrahydronaphthalen-2-yl)-N-propylamine]	–	–	–	–	–
1.55 nM	0.83 nM	–	–	99%	5.6 nM	80.5%	7.61 nM	CCCN(CCCc1c[nH]c2ccc(F)cc12)[C@H]1CCc2cccc(OC)c2C1 [Compound 47a, (−)-N-[3-(5-fluoro-1H-indol-3-yl)propyl]-8-methoxy-N-propyl-1,2,3,4-tetrahydronaphthalen-2-amine]	–	–	–	–	–
0.34 nM	1.1 nM	–	–	100%	19.4 nM	87%	1.55 nM	CCCN(CCCc1c[nH]c2ccc(F)cc12)[C@@H]1CCc2cccc(OC)c2C1 [Compound 47b, (2R)-N-[3-(5-fluoro-1H-indol-3-yl)propyl]-8-methoxy-N-propyl-1,2,3,4-tetrahydronaphthalen-2-amine]	–	–	–	–	–
2.13 nM	14 nM	–	–	98%	4 nM	90%	2.52 nM	CCCN(CCCc1c[nH]c2ccccc12)C1CCc2cccc(OC)c2C1 (centres unmarked) [Compound 50, N-[3-(1H-indol-3-yl)propyl]-8-methoxy-N-propyl-1,2,3,4-tetrahydronaphthalen-2-amine]	–	–	–	–	–
11.4 nM	2.42 nM	–	–	83%	15.3 nM	95%	13 nM	CCCN(CCCc1c[nH]c2ccc(F)cc12)C1CCc2c(F)ccc(OC)c2C1 (centres unmarked) [Compound 51, N-[3-(5-fluoro-1H-indol-3-yl)propyl]-N-(5-fluoro-8-methoxy-1,2,3,4-tetrahydronaphthalen-2-yl)-N-propylamine]	–	–	–	–	–
2.37 nM	163 nM	983 nM	90%	0%	–	–	–	NC(=O)c1ccc(F)c2c1CC(N(CCCc1c[nH]c3cc(F)ccc13)CC1CC1)CO2 (centres unmarked) [Compound 52a, 3-{(cyclopropylmethyl)[3-(6-fluoro-1H-indol-3-yl)propyl]amino}-8-fluorochromane-5-carboxamide]	118 nM	–	–	–	–

SMILES	Ki (5-HT1A receptor [1]; [4])	Ki (serotonin transporter; [5])	IC50 [2]	Emax [2, 6]	Emax (5-HT1A receptor [3]; in brackets after EC50 or IC50)	EC50 [2]	Emax [2, 7]	EC50 (5-HT1A receptor [3])	IC50 (5-HT1A receptor [3])	Ki (5-HT1A receptor [1]; 5-HT1A Receptor Affinity Ki (nM))	Ki (serotonin transporter; 5-HT Transporter Affinity Ki (nM))	5-HT1A Function GTPγS (Imax) ([2]; maximum inhibitory effect, in brackets after IC50)	5-HT1A Function cAMP (Emax) (5-HT1A receptor [3]; in brackets after EC50 or IC50)
COc1cccc2c1C[C@@H](N(CCCc1c[nH]c3ccc(F)cc13)C1CCC1)CO2 [Compound 35, (3R)-N-cyclobutyl-N-[3-(5-fluoro-1H-indol-3-yl)propyl]-5-methoxy-3,4-dihydro-2H-chromen-3-amine]	2.14 nM	41 nM	489 nM	80%	0%	–	–	–	23.4 nM	–	–	–	–
COc1cccc2c1CC(N(CCCc1c[nH]c3ccc(F)cc13)CC1CC1)CO2 (centres unmarked) [Compound 37, N-(cyclopropylmethyl)-N-[3-(5-fluoro-1H-indol-3-yl)propyl]-N-(5-methoxy-3,4-dihydro-2H-chromen-3-yl)amine]	1.68 nM	4.3 nM	–	–	91%	146 nM	88%	14.1 nM	–	–	–	–	–
CCCN(CCc1c[nH]c2ccc(F)cc12)C1CCc2cccc(OC)c2C1 (centres unmarked) [Compound 48, N-[2-(5-fluoro-1H-indol-3-yl)ethyl]-N-(8-methoxy-1,2,3,4-tetrahydronaphthalen-2-yl)-N-propylamine]	5.98 nM	6.5 nM	–	–	89%	24 nM	93%	35 nM	–	–	–	–	–
CCN(CCc1c[nH]c2ccc(F)cc12)C1CCc2cccc(OC)c2C1 (centres unmarked) [Compound 49, N-ethyl-N-[2-(5-fluoro-1H-indol-3-yl)ethyl]-N-(8-methoxy-1,2,3,4-tetrahydronaphthalen-2-yl)amine]	–	–	–	–	93%	15 nM	88%	35.5 nM	–	7.62 nM	6.5 nM	–	–
NC(=O)c1ccc(F)c2c1CC(N(CCCc1c[nH]c3cc(F)ccc13)C1CCC1)CO2 (centres unmarked) [Compound 53, 3-{cyclobutyl[3-(6-fluoro-1H-indol-3-yl)propyl]amino}-8-fluorochromane-5-carboxamide]	5.02 nM	237 nM	512 nM	100%	0%	–	–	–	486 nM	–	–	–	–
COC(=O)c1ccc(F)c2c1CC(N(CCCc1c[nH]c3ccc(F)cc13)C1CCC1)CO2 (centres unmarked) [Compound 55, Methyl 3-{cyclobutyl[3-(5-fluoro-1H-indol-3-yl)propyl]amino}-8-fluorochromane-5-carboxylate]	73.8 nM	161 nM	–	–	–	–	–	–	–	–	–	62%	0%
